Measured values reported in patent US20110008409A1, “PHARMACEUTICAL PREPARATION CONTAINING A GESTAGEN, AND KIT AND METHOD FOR TREATING ENDOMETRIOSIS USING THE PREPARATION” (priority 2007, published 2011).

Tests used:
ovulation = conditions: daily dose; as set for the purposes of the invention; cited from earlier work
[1] = tested on: women with laparoscopically diagnosed endometriosis; conditions: in vivo
Experimental: (§1) The efficacy of each therapy was evaluated by means of, among other methods, a pain scale (visual analog scale, VAS) form filled out by the patient.

[2] = tested on: subjects affected with endometriosis; conditions: 2 mg of dienogest per day for 24 weeks; cited from earlier work
[3] = tested on: women with laparoscopically diagnosed endometriosis; experiment: Clinical study in endometriosis: pain scale (visual analog scale, VAS); assay type: in vivo; conditions: end of 6-month treatment; for pain reduction on visual analog scale (VAS) compared to the pain experienced at the beginning of therapy: DNG 2 mg/d orally, LA 3.75 mg s.c. every 4 weeks
Experimental: as §1

[4] = tested on: women with laparoscopically diagnosed endometriosis; conditions: in vivo; remark: listed apart in the source
[5] = tested on: women with laparoscopically diagnosed endometriosis; conditions: in vivo; remark: listed apart in the source
Experimental: as §1
The effect of the two therapies on bone metabolism was studied in a subgroup of patients.

Row | Structure (SMILES) | ovulation-inhibiting dose (ovulation) [mg] | course of hot flash symptomatology during therapy [1] | result of the treatment compared with Danazol or GnRH agonists [2] | statistical analysis of pain reduction versus comparator ([3]; DNG 2 mg/d orally vs LA 3.75 mg s.c. every 4 weeks) | pain reduction on visual analog scale (VAS) compared to the pain experienced at the beginning of therapy [3] [mm] | estrogen values, average value at the end of study [4] [pmol/L] | change of bone density compared to the beginning of the study [5] | laboratory parameters for determining bone metabolism [5]
1 | CC(=O)O[C@]1(C(C)=O)CC[C@H]2[C@@H]3C=C(Cl)C4=CC(=O)[C@@H]5C[C@@H]5[C@]4(C)[C@H]3CC[C@@]21C [cyproterone acetate] | 1 |  |  |  |  |  |  | 
2 | C[C@]12CCC3=C4CCC(=O)C=C4CC[C@H]3[C@@H]1CC[C@@]2(O)CC#N [DNG, 17α-cyanomethyl-17-β-hydroxyestra-4,9-dien-3-one] |  | reduced | comparable | not inferior to LA | −47.5 | 249.9 | +0.25% | 
3 | CCNC(=O)[C@@H]1CCCN1C(=O)[C@H](CCCNC(=N)N)NC(=O)[C@H](CC(C)C)NC(=O)[C@@H](CC(C)C)NC(=O)[C@H](Cc1ccc(O)cc1)NC(=O)[C@H](CO)NC(=O)[C@H](Cc1c[nH]c2ccccc12)NC(=O)[C@H](Cc1c[nH]cn1)NC(=O)[C@@H]1CCC(=O)N1 [LA, leuprorelin acetate] |  | increased |  |  | −46.0 | 68.5 | −4.0% | increased bone resorption
4 | CC(=O)O[C@]1(C(C)=O)CC[C@H]2[C@@H]3C=C(Cl)C4=CC(=O)CC[C@]4(C)[C@H]3CC[C@@]21C [chiormadinone acetate, chlormadinone acetate] | 1.7 |  |  |  |  |  |  | 
